Activity calls are given as the source filed them. For most assays here, no stated cut-off is given here; in the data, actives have a measured IC50 and inactives only a lower limit.

The term IC50 denotes the midpoint of a concentration-inhibition curve.

Common to all, as to assay type: functional
In experiment [1] the target is T1, Tyrosine-protein phosphatase non-receptor type 12 (Homo sapiens, UniProt Q05209).
T1 sequence (Q05209 whole entry): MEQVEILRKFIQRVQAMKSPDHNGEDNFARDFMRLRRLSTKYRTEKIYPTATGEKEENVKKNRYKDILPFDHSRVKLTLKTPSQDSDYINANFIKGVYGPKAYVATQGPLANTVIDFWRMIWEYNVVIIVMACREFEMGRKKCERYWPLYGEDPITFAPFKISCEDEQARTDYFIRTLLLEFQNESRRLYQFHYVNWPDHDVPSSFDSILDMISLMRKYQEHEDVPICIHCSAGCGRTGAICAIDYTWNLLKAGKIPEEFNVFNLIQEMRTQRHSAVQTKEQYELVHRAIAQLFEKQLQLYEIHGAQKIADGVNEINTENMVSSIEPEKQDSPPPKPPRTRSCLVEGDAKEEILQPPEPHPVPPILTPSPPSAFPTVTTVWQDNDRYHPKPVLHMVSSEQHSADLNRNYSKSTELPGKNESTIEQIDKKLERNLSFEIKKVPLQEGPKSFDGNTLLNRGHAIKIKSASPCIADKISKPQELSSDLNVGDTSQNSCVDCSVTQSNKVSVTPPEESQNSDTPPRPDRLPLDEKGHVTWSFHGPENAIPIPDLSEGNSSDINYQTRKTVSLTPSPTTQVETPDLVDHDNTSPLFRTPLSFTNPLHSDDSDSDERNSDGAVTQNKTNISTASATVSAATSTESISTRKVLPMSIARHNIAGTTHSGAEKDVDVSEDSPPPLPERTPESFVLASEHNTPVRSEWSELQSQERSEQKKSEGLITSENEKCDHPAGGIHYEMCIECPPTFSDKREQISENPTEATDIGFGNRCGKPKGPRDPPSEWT
Nature of the experiment: SAR Selectivity Analysis of small molecule inhibitors of PEST using pCAP in a fluorescence assay. [Related pubchem assays (depositor defined):AID1779, AID1784, AID2135].

The nature of experiment [2]: Luminescent dose response cell-based high throughput screening assay for inhibitors of the Janus kinase 2 mutant JAK2V617F. [Related pubchem assays: 1446 (Primary screen.), 1521 (Confirmation assay.), 1486 (Counter screen.)]. In general terms: A counterscreen serves to expose hits that act by an unwanted route or on another target.
For experiment [3], the target named is T2, Sentrin-specific protease 7 (Homo sapiens, UniProt Q9BQF6).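 Further: Luminescence-based dose-response confirmation of ultra-high-throughput screening hits, measuring inhibition of SENP7.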
T2 sequence (Q9BQF6 whole entry): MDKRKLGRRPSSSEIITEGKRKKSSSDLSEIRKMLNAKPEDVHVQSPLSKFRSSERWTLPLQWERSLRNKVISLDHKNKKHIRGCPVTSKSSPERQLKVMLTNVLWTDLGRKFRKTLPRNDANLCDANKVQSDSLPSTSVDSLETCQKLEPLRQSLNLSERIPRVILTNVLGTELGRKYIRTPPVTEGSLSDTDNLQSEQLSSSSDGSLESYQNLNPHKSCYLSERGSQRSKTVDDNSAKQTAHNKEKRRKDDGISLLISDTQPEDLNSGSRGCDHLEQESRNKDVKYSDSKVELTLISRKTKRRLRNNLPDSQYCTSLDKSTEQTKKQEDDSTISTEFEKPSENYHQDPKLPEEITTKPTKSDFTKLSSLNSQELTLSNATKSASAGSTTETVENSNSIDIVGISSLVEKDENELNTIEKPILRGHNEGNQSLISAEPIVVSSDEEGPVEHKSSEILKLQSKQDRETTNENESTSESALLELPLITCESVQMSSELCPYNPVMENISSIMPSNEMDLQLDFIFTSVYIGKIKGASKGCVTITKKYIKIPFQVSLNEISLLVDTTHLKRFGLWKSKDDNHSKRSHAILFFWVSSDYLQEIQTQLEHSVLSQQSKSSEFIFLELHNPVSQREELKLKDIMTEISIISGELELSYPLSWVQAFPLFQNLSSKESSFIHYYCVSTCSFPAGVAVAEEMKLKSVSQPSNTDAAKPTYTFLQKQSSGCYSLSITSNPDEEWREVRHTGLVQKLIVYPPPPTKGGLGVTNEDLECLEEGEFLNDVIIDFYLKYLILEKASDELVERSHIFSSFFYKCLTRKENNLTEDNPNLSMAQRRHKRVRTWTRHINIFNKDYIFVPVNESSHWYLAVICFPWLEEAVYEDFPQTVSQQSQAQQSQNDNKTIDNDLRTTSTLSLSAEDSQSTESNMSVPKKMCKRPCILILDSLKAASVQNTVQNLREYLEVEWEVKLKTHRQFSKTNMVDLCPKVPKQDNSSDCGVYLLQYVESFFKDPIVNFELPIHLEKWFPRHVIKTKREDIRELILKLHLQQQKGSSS

Experiment [4] addresses T3, Sentrin-specific protease 8 (Homo sapiens, UniProt Q96LD8).
T3 sequence (Q96LD8 whole entry): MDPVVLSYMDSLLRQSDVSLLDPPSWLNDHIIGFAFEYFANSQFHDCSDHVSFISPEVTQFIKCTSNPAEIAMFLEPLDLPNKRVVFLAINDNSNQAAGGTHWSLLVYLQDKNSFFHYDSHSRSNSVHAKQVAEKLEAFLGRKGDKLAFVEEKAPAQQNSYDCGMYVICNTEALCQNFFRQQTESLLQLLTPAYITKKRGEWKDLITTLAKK

Regarding `COc1ccc(/C=C2\SC(=S)N(CCC(=O)Nc3ccc(C(=O)O)cc3)C2=O)cc1OC`, the half-inhibitory concentration (IC50) in experiment [1] was 1.13 µM (active).

Consider `COc1ccc(Nc2ccc3c(c2)=NC2(CCCCC2)[N+]=3[O-])cc1`, for which the IC50 is 824 nM (active) in experiment [2], 9.21 µM (active) in experiment [3] and 14.8 µM (active) in experiment [4].

(Values after ChEMBL document CHEMBL1201862, “PubChem BioAssay data set” (2004).)
